Like-named read-outs stand apart in the source and are kept apart here.
Columns and labels:
MDA-MB-231 cells = assay: Inhibitory effect on MDA-MB-231 cell proliferation; assay type: cell-based; conditions: Homo sapiens; MDA-MB-231, 72 h incubation, Cell Counting-Lite 2.0
Method: (1) Cell plating: First, tumor cells MDA-MB-231 were cultured with corresponding culture medium, the cells were digested with trypsin and centrifuged, then the cells were resuspended and counted, and the cells were adjusted to an appropriate concentration for plating.
(§1) Co-incubation of the compounds of the present invention and tumor cells: 90 μL of cell suspension was added to 96-well plates respectively. After cell adherence, 10 μL of bioactive molecules (compounds of the present invention) diluted with culture medium were added into the wells of the above plates, and incubated for 72 h.
(§2) In vitro cell viability detection: After the incubation, 50 μL of Cell Counting-Lite™ 2.0 reagent (Vazyme) was added to each well, shaken and mixed well in the dark, and reacted for 10 minutes before testing. Microplate reader (manufacturer: BMG, Model: PHERA Star-FS) was used for reading. The culture wells without cells were used as the background RLU, and the culture wells with cells but no compound were used as the cell control RLU. Cell inhibition rate=1−(sample RLU−background RLU)/(cell control RLU−background RLU)×100%. The half-inhibition concentration (IC50) of compound was calculated by fitting the curve according to the four-parameter model.

MDCK cells = assay: Permeability test in MDCK cell model; assay type: in vitro ADME
Method: (§3) The MDCK cell model was used to evaluate the permeability of the compounds, the LC-MS/MS method was used to determine the concentration of the substance to be tested, and the apparent permeability coefficient (Papp) and efflux ratio were calculated [Efflux ratio=Papp(B→A)/Papp(A→B)].
(§4) Complete culture medium: 10% fetal bovine serum and 1% penicillin/streptomycin were added to MEM culture medium.
(§5) Digestive solution: 0.05% trypsin-EDTA.
(§6) HBSS buffer: HBSS containing Ca^2+, Mg^2+.
(§7) Permeating solution: HBSS containing 10 mM Hepes, 4% BSA, pH 7.4.
(§8) Compound stock solution: a certain amount of the compound to be tested was weighed and formulated with DMSO to prepare a 10 mM stock solution.
(§9) MDCK cells (26th generation) in the logarithmic growth phase were digested and dispersed evenly with 0.05% trypsin-EDTA, and then inoculated into the Transwell chamber at 3*10^5 cells/cm^2, with 200 μL on the A side and 1000 μL on the B side. After inoculation, the medium was changed once every day and the culturing was carried out for 3 to 4 days.
(§10) The cell culture medium was discarded by pipetting, then washing was carried out three times with the permeating solution. 200 μL of permeating solution was added to A side and 1000 μL of permeating solution was added to B side. A voltage resistance meter was used to measure the cell transmembrane resistance (TEER). After the TEER value of the cells was measured, the permeating solution on both sides was discarded by pipetting, and the solution was added. After 120 minutes, 150 μL of samples were taken from A side and B side, respectively, and frozen at −80° C. before testing. Then, 10 μg/ml Fluorescent Yellow was added to A side. After incubation for 30 minutes, 100 μL of solution at B side was pipetted and added into a 96-well white plate. The fluorescence value was measured at the wavelengths of Ex=485 nm and Em=530 nm using a microplate reader, and the permeance was calculated (which was less than 1%).
(§11) 80 μL of the compound to be tested was taken, added to 320 μL of acetonitrile solution containing internal standard (30 ng/mL Tolbutamide), vortexed, and centrifuged for 10 min (4000 rpm, 4° C.), and the supernatant was taken for LC-MS/MS analysis.
(§12) Excel 2013 was used to calculate Papp values and Papp ratio of B side→A side to A side→B side, and the recovery rates of each Control Compound and the compound to be tested were calculated.
(§13) Apparent permeability coefficient (Papp) of compound was calculated according to the following formula:
(§14) C0 was the initial concentration (μM) of the drug to be tested at the donor, (dCr/dt)×Vr was the rate (μM/s) at which the drug to be tested appeared at the receiver, Vr was the solution volume (mL) at the receiver, and A was the surface area (cm^2) of polycarbonate membrane.
(§15) Evaluation criteria: Low permeability: Papp≤0.5 (×10^−6 cm/s) • Medium permeability: 0.5<Papp<2.5 (×10^−6 cm/s) • High permeability: Papp≥2.5 (×10^−6 cm/s)
(§16) Efflux ratio (ER) was calculated according to Papp:
(§17) [formula] • wherein, Papp(B→A) was the apparent permeability coefficient of the drug to be tested from the BL (baso-lateral) end to the AP (apical) end, and Papp (A→B) was the apparent permeability coefficient of the drug to be tested from the AP end to the BL end.
(§18) • Probably being an efflux transporter substrate (Probably): ERa≥2 and ERa/ERi>2 • Likely being an efflux transporter substrate (Likely): ERa≥2 • Unlikely or impossibly being an efflux transporter substrate (Poor or non): ERa<2 • wherein, ERi and ERa were the efflux ratios of the compound to be tested in the presence and absence of P-gp inhibitor, respectively.

[1] = Permeability test in MDCK cell model; assay type: in vitro ADME; conditions: dog; for efflux ratio at 120 min, 2 μM: pH 7.4, 2.00 μM, Papp(B→A)/Papp(A→B), absence of P-gp inhibitor, read-out: Efflux ratio (ERa)
Method: as §3, §4, §5, §6, §7, §8, §9, §10, §11, §12, §13, §14, §15, §16, §17, §18

NCI-N87 cells = assay: Inhibitory effect on NCI-N87 cell proliferation; assay type: cell-based; conditions: Homo sapiens, read-out: IC50 (nM), inhibitory activity on NCI-N87 cell proliferation
Method: (1) Cell plating: First, tumor cells NCI-N87 were cultured with corresponding culture medium, the cells were digested with trypsin and centrifuged, then the cells were resuspended and counted, and the cells were adjusted to an appropriate concentration for plating.
as §1, §2

MDA-MB-453 cells = assay: Inhibitory effect on MDA-MB-453 cell proliferation; assay type: cell-based; conditions: Homo sapiens; MDA-MB-453, 72 h incubation, Cell Counting-Lite 2.0
Method: (1) Cell plating: First, tumor cells MDA-MB-453 were cultured with corresponding culture medium, the cells were digested with trypsin and centrifuged, then the cells were resuspended and counted, and the cells were adjusted to an appropriate concentration for plating.
as §1, §2

HT29 cells = assay: Inhibitory effect on HT29 cell proliferation; assay type: cell-based; conditions: Homo sapiens, HT-29; HT29, 72 h incubation, Cell Counting-Lite 2.0
Method: (1) Cell plating: First, tumor cells HT29 were cultured with corresponding culture medium, the cells were digested with trypsin and centrifuged, then the cells were resuspended and counted, and the cells were adjusted to an appropriate concentration for plating.
as §1, §2

HCC1806 cells = assay: Inhibitory effect on HCC1806 cell proliferation; assay type: cell-based; conditions: Homo sapiens; HCC1806, 72 h incubation, Cell Counting-Lite 2.0
Method: (1) Cell plating: First, tumor cells HCC1806 were cultured with corresponding culture medium, the cells were digested with trypsin and centrifuged, then the cells were resuspended and counted, and the cells were adjusted to an appropriate concentration for plating.
as §1, §2

NCI-H358 cells = assay: Inhibitory effect on NCI-H358 cell proliferation; assay type: cell-based; conditions: Homo sapiens; NCI-H358, 72 h incubation, Cell Counting-Lite 2.0
Method: (1) Cell plating: First, tumor cells NCI-H358 were cultured with corresponding culture medium, the cells were digested with trypsin and centrifuged, then the cells were resuspended and counted, and the cells were adjusted to an appropriate concentration for plating.
as §1, §2

Jeko-1 cells = assay: Inhibitory effect on Jeko-1 cell proliferation; assay type: cell-based; conditions: Homo sapiens; Jeko-1, 72 h incubation, Cell Counting-Lite 2.0
Method: (1) Cell plating: First, tumor cells Jeko-1 were cultured with corresponding culture medium, the cells were resuspended and counted, and finally the cells were adjusted to an appropriate concentration for plating.
as §1, §2

[2] = pH 7.4, concentration 2.00 μM, 120 minutes, A to B, read-out: Papp A to B
[3] = pH 7.4, concentration 2.00 μM, 120 minutes, B to A, read-out: Papp B to A
[4] = NCI-N87, 72 h incubation, Cell Counting-Lite 2.0

| SMILES | IC50 (MDA-MB-231 cells) [nM] | Efflux transporter substrate evaluation from efflux ratio (MDCK cells; 2.00 μM) | Permeability class according to the Papp(A→B) results (MDCK cells; 2.00 μM) | efflux ratio at 120 min, 2 μM [1] | Papp A→B at 120 min, 2 μM [1, 2] [×10⁻⁶ cm/s] | Papp B→A at 120 min, 2 μM [1, 3] [×10⁻⁶ cm/s] | IC50 (NCI-N87 cells; NCI-N87, 72 h) [nM] | IC50 (MDA-MB-453 cells) [nM] | IC50 (HT29 cells) [nM] | IC50 (HCC1806 cells) [nM] | IC50 (NCI-H358 cells) [nM] | IC50 (Jeko-1 cells) [nM] | Permeability class according to the Papp(A→B) results (MDCK cells) | Papp A→B at 120 min, 2 μM ([1]; pH 7.4) [×10⁻⁶ cm/s] | Papp B→A at 120 min, 2 μM ([1]; pH 7.4) [×10⁻⁶ cm/s] | IC50 (NCI-N87 cells; [4]) [nM] |
| --- | --- | --- | --- | --- | --- | --- | --- | --- | --- | --- | --- | --- | --- | --- | --- | --- |
| CC[C@@]1(O)C(=O)OCc2c1cc1n(c2=O)Cc2c-1nc1cc(F)c(Cl)cc1c2CN [Compound 1-1, (S)-11-(aminomethyl)-9-chloro-4-ethyl-8-fluoro-4-hydroxy-1,12-dihydro-14H-pyrano[3′,4′:6,7]indolizino[1,2-b]quinolin-3,14(4H)-dione] | 3.55 | not efflux transporter substrates or were weak efflux transporter substrates | high-permeability | 1.41 | 2.59 | 3.65 | 8.59 | 291 | 1.07 | 1.23 | 25.7 | – | – | – | – | – |
| CC[C@@]1(O)C(=O)OCc2c1cc1n(c2=O)Cc2c-1nc1cc(F)c(Cl)cc1c2CNC(=O)C(O)C1CC1 (some centres unmarked) [Compound 2-4] | – | – | – | – | – | – | 5.72 | 95.6 | 5.99 | 1.08 | 53.4 | 0.34 | – | – | – | – |
| CC[C@@]1(O)C(=O)OCc2c1cc1n(c2=O)Cc2c-1nc1cc(F)c(Cl)cc1c2CNC(=O)C(O)C(F)(F)F (stereo partly drawn) [Compound 2-19, N—(((S)-9-chloro-4-ethyl-8-fluoro-4-hydroxy-3,14-dioxo-3,4, 12,14-tetrahydro-1H-pyrano[3′,4′:6,7]indolizino[1,2-b]quinolin-11-yl)methyl)-3,3,3-trifluoro-2-hydroxypropionamide] | – | not efflux transporter substrates or were weak efflux transporter substrates | – | 1.48 | – | – | – | – | 2.93 | 0.78 | 12.7 | 1.09 | low-permeability | 0.5 | 0.73 | 5.69 |
| C=CC(O)C(=O)NCc1c2c(nc3cc(F)c(Cl)cc13)-c1cc3c(c(=O)n1C2)COC(=O)[C@]3(O)CC (stereo partly drawn) [Compound 2-22, N—(((S)-9-chloro-4-ethyl-8-fluoro-4-hydroxy-3,14-dioxo-3,4, 12,14-tetrahydro-1H-pyrano[3′,4′:6,7]indolizino[1,2-b]quinolin-11-yl)methyl)-2-hydroxy-3-enamine] | – | could be efflux transporter substrates | – | 2.24 | – | – | – | – | 10.2 | 6.09 | – | 1.11 | medium-permeability | 0.71 | 1.59 | 7.27 |
| CC[C@@]1(O)C(=O)OCc2c1cc1n(c2=O)Cc2c-1nc1cc(F)c(C)c3c1c2[C@@H](NS(N)(=O)=O)CC3 [Compound 7-1, (1S,9S)-1-sulfamoylamido-9-ethyl-5-fluoro-9-hydroxy-4-methyl-1,2,3,9,12,15-hexahydro-10H,13H-benzo[de]pyranol[3′,4′:6,7]indolizino[1,2-b]quinolin-10,13-dione] | 31 | – | – | – | – | – | 31.3 | 50.2 | 10.1 | 3.67 | 268 | 4.07 | – | – | – | – |
| CC[C@@]1(O)C(=O)OCc2c1cc1n(c2=O)Cc2c-1nc1cc(F)c(C)c3c1c2[C@@H](NC(N)=O)CC3 [Compound 7-2, 1-((1S,9S)-9-ethyl-5-fluoro-9-hydroxy-4-methyl-10,13-dioxy-2,3,9,10,13,15-hexahydro-1H,12H-benzo[de]pyrano[3′,4′:6,7]indolizino[1,2-b]quinolin-1-yl)urea] | 30.6 | – | – | – | – | – | 80.8 | 203 | 22.8 | 18.6 | 287 | 2.17 | – | – | – | – |
| CC[C@@]1(O)C(=O)OCc2c1cc1n(c2=O)Cc2c-1nc1cc(F)c(C)cc1c2CN [Control Compound 1, reference compound] | – | could be efflux transporter substrates | medium-permeability | 2.06 | 1.31 | 2.71 | – | – | – | – | – | – | – | – | – | – |
| CC[C@@]1(O)C(=O)OCc2c1cc1n(c2=O)Cc2c-1nc1cc(F)c(C)cc1c2CNC(=O)CO [Control Compound 2, reference compound] | – | could be efflux transporter substrates | low-permeability | 28 | 0.01 | 0.4 | – | – | – | – | – | – | – | – | – | – |
| CC[C@@]1(O)C(=O)OCc2c1cc1n(c2=O)Cc2c-1nc1cc(F)c(C)c3c1c2[C@@H](NC(=O)CO)CC3 [Control Compound 3, reference compound] | – | could be efflux transporter substrates | low-permeability | 15.2 | 0.31 | 4.65 | – | – | – | – | – | – | – | – | – | – |

From US20260258051A1, “Camptothecin Compound, Preparation Method Therefor and Use Thereof” (SICHUAN KELUN-BIOTECH BIOPHARMACEUTICAL CO., LTD., priority 2022, published 2026)
